PubChem BioAssay AID1959 (Broad Institute, 2009)
Activity calls are given as the source filed them.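 Rule for the calls: active = growth-inhibition EC50 no more than tenfold above the top tested dose; inconclusive = flat fit between 30% and 70% inhibition, or unreliable fit; inactive = EC50 more than tenfold above the top tested dose.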

system: E. coli NEB5alpha growth, BacTiter-Glo luminescence, 4 h; test: antibacterial activity against E. coli NEB5alpha – luminescence, counter-screen for MEX-5/POS-1 RNA-binding inhibitor project, dose response (AID 1959);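 note: pUC19-transformed ampicillin-resistant cells grown in LB with ampicillin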

**Q.** CCCCC1=CC2=CC(=O)C(C)(OC(=O)c3ccco3)C(=O)C2=CO1 (stereo not drawn) was tested. Which EC50 did it give?
**A.** > 11 µM (inactive)

**Q.** How did the EC50 turn out when CC(C)/C=C1\CC/C(=C\c2ccc(N(C)C)cc2)C1=O was run?
**A.** > 11 µM (inactive)

**Q.** CC1CN(C2CC(C)(C)NC(C)(C)C2)CCC1=O (stereo not drawn) was tested. Which EC50 did it give?
**A.** > 11 µM (inactive)

**Q.** CCOC(=O)[C@]1(C#N)[C@@H]2C=CC(C(C)=O)=CN2[C@@H](C(N)=O)[C@@H]1c1ccsc1 was tested. Which EC50 did it give?
**A.** > 11 µM (inactive)

**Q.** With CCCCC1=CC2=C(c3ccco3)C(=O)C(C)(OC(=O)c3ccc(OC)cc3)C(=O)C2=CN1C1CCCC1 (stereo not drawn) as the compound, how does the EC50 read?
**A.** > 11 µM (inactive)

**Q.** Cc1ccc(N=Nc2c(O)ccc3n[nH]nc23)cc1 was tested. Which EC50 did it give?
**A.** > 11 µM (inactive)

**Q.** How did the EC50 turn out when CCC(=O)Nc1ccc2nc3c(=O)[nH]c(=S)[nH]c3nc2c1 was run?
**A.** > 11 µM (inactive)

**Q.** For Cc1c(N=Cc2c(O)n(Cc3ccccc3)c(=O)[nH]c2=O)c(=O)n(-c2ccccc2)n1C, which EC50 is on record?
**A.** > 11 µM (inactive)

**Q.** For CN(C)CCCN(C(=O)/C=C/c1cccs1)c1nc2ccc(F)cc2s1, which EC50 is on record?
**A.** > 11 µM (inactive)

**Q.** How did the EC50 turn out when O=C(NCCCN1CCOCC1)C1Nc2ccc(OC(F)(F)F)cc2C2C=CCC12 (stereo not drawn) was run?
**A.** > 11 µM (inactive)

**Q.** Which EC50 does the source give for O=C(CNC(=O)/C=C/c1ccco1)N=Nc1c(O)[nH]c2ccccc12 here?
**A.** > 11 µM (inactive)

**Q.** With Cc1cc2c3c(c1C)C1(C(=O)N3C(C)(C)CC2C)C(C#N)=C(N)OC2=C1C(=O)CC(C)(C)C2 (stereo not drawn) as the compound, how does the EC50 read?
**A.** > 11 µM (inactive)

**Q.** For Cc1[nH][nH]c(=O)c1N=Nc1ccc(S(N)(=O)=O)cc1, which EC50 is on record?
**A.** > 11 µM (inactive)

**Q.** How did the EC50 turn out when Cc1ccc(/C=C2\Oc3c(ccc(O)c3CN3CCN(CCO)CC3)C2=O)cc1 was run?
**A.** > 11 µM (inactive)

**Q.** With COc1ccc(C(=O)NNC(=O)c2cnccn2)cc1[N+](=O)[O-] as the compound, how does the EC50 read?
**A.** > 11 µM (inactive)

**Q.** How did the EC50 turn out when O=C1C2CC=C(Cl)CC2C(=O)N1CCCCCCN1C(=O)C2CC=C(Cl)CC2C1=O (stereo not drawn) was run?
**A.** > 11 µM (inactive)

**Q.** With Cn1c(O)c(/C=C2\C=Nc3ccccc32)c(=O)n(C)c1=O as the compound, how does the EC50 read?
**A.** > 11 µM (inactive)

**Q.** How did the EC50 turn out when COc1ccc(/C=C2\N=C(C)OC2=O)cc1OC was run?
**A.** > 11 µM (inactive)

**Q.** With CO[C@H]1O[C@H](CBr)[C@@H](OC(=O)c2ccccc2)[C@H](O)[C@H]1O as the compound, how does the EC50 read?
**A.** > 11 µM (inactive)

**Q.** For O=c1[nH]c(=O)n(-c2cccc(F)c2)c(O)c1/C=C1\C=Nc2ccccc21, which EC50 is on record?
**A.** > 11 µM (inactive)

**Q.** For CCN(CC)CCN(Cc1cc2ccc(C)c(C)c2[nH]c1=O)C(=S)NCc1ccco1, which EC50 is on record?
**A.** > 11 µM (inactive)

**Q.** With COc1ccc(CCCc2nc3ccccc3[nH]2)cc1 as the compound, how does the EC50 read?
**A.** > 11 µM (inactive)

**Q.** How did the EC50 turn out when CCC(=O)OC1(C)C(=O)C=C2C=C(CCCCNC(=O)OC(C)(C)C)OC=C2C1=O (stereo not drawn) was run?
**A.** > 11 µM (inactive)

**Q.** For Oc1ccc(-c2cn3ccccc3n2)cc1O, which EC50 is on record?
**A.** > 11 µM (inactive)

**Q.** With Cn1c(O)c(/C=C2\C=Nc3ccc(Br)cc32)c(=O)n(C)c1=O as the compound, how does the EC50 read?
**A.** > 11 µM (inactive)

**Q.** With O=C(CSCc1c(Cl)cccc1Cl)NCC1CCCO1 (stereo not drawn) as the compound, how does the EC50 read?
**A.** > 11 µM (inactive)

**Q.** Cc1cc(/C=N/n2cnnc2)c(C)n1-c1cccc(C(=O)O)c1 was tested. Which EC50 did it give?
**A.** > 11 µM (inactive)

**Q.** For O=C1NC(=O)N(c2ccccc2)C(=O)/C1=C/c1coc2ccc(O)cc2c1=O, which EC50 is on record?
**A.** > 11 µM (inactive)

**Q.** CC(C)N1CCc2c(sc(NC(=O)c3ccc(S(=O)(=O)N(C)CC4CCCO4)cc3)c2C(N)=O)C1 (stereo not drawn) was tested. Which EC50 did it give?
**A.** > 11 µM (inactive)

**Q.** With CC(=O)NC1=NC(=O)/C(=C/c2cc(C)n(-c3cccc(C(=O)O)c3)c2C)S1 as the compound, how does the EC50 read?
**A.** > 11 µM (inactive)

**Q.** CCOC(=O)Cc1nc2ccccc2n(CC#N)c1=O was tested. Which EC50 did it give?
**A.** > 11 µM (inactive)

**Q.** O=C(CNS(=O)(=O)c1ccc([N+](=O)[O-])cc1)N/N=C/c1ccc(O)cc1O was tested. Which EC50 did it give?
**A.** > 11 µM (inactive)

**Q.** CN1C[C@H](CO)C=C2c3cccc4[nH]cc(c34)C[C@H]21 was tested. Which EC50 did it give?
**A.** > 11 µM (inactive)

**Q.** Which EC50 does the source give for CCCCc1ccc(/C=C2\C(=O)ON=C2c2ccccc2)s1 here?
**A.** > 11 µM (inactive)

**Q.** For CNc1nnc(-c2cc3ccccc3oc2=O)s1, which EC50 is on record?
**A.** > 11 µM (inactive)

**Q.** COC(=O)c1ccccc1-n1cccc1C(=O)NP(=O)(N1CCOCC1)N1CCOCC1 was tested. Which EC50 did it give?
**A.** > 11 µM (inactive)

**Q.** COC(=O)C1=C(C)N(c2ccccc2)/C(=C/c2ccco2)C1=O was tested. Which EC50 did it give?
**A.** > 11 µM (inactive)

**Q.** Which EC50 does the source give for COc1ccc2c(-c3ccccc3)cc(SCC(N)=O)nc2c1 here?
**A.** > 11 µM (inactive)
